Test results reported in publication PMC12396409, “Screening and hit evaluation of a microbial metabolite library against the pathogenic Plasmodium falciparum and Toxoplasma gondii parasites” (International Journal for Parasitology: Drugs and Drug …, 2025).
Counter-ions that a name gives are not always drawn. Like-named read-outs stand apart in the source and are kept apart here.

Assays:
[1] = tested on: T. gondii RH strain (RH-Tub-eYFP) tachyzoites; assay: microbe, parasite or virus in culture; assay type: cell-based, Toxoplasma gondii
[2] = tested on: P. falciparum 3D7 parasites; assay: P. falciparum growth inhibition assay, 2-cycle (120 h treatment), delayed-death screen and dose-response; assay type: cell-based, Plasmodium falciparum; details: for activity at 2 µg/mL: Plasmodium falciparum
[3] = tested on: P. falciparum 3D7 parasites; assay: P. falciparum growth inhibition assay, 1-cycle (72 h treatment), SYBR DNA staining (library screen at 2 μg/mL and dose-response); assay type: cell-based, Plasmodium falciparum; details: for activity at 2 µg/mL: Plasmodium falciparum
[4] = 3D7, library screen at 2 μg/mL, 120 h, % growth, replicate 1, read-out: Pf_120h_%Growth_Rep1
[5] = 3D7, library screen at 2 μg/mL, 120 h, % growth, replicate 2, read-out: Pf_120h_%Growth_Rep2
[6] = 3D7, library screen at 2 μg/mL, 72 h, % growth, replicate 1, read-out: Pf_72h_%Growth_Rep1
[7] = 3D7, library screen at 2 μg/mL, 72 h, % growth, replicate 2, read-out: Pf_72h_%Growth_Rep2
[8] = library screen at 2 μg/mL, 72 h, % growth, replicate 1
[9] = library screen at 2 μg/mL, 72 h, % growth, replicate 2

`CC(C)[C@H]1C(=O)O[C@H](C(C)C)C(=O)N(C)[C@@H](C(C)C)C(=O)O[C@H](C(C)C)C(=O)N(C)[C@@H](C(C)C)C(=O)O[C@H](C(C)C)C(=O)N1C` [Enniatin B] showed a percent parasite growth at 2 µg/mL ([1]; Toxoplasma gondii; library screen at 2 μg/mL, 72 h, % growth, replicate 1; read-out: Tg_72h_%Growth_Rep1) of 3.2%, a percent parasite growth at 2 µg/mL ([1]; Toxoplasma gondii; library screen at 2 μg/mL, 72 h, % growth, replicate 2; read-out: Tg_72h_%Growth_Rep2) of 30.3% and an activity at 2 µg/mL [2, 4] of 2.26%. For the same compound, the activity at 2 µg/mL [2, 5] was 4.15%, the activity at 2 µg/mL [3, 6] was 4.68% and the activity at 2 µg/mL [3, 7] was 1.65%.

For `COc1ccc2cc1Oc1cc(ccc1O)[C@H](O)[C@]13SS[C@@]4(C(=O)N1C)[C@H](O)C1=COC=C[C@H](OC2=O)[C@H]1N4C3=O` [Emestrin], the Tg_72h_%Growth_Rep1 [1, 8] was 2.77%, the Tg_72h_%Growth_Rep2 [1, 9] was 0.86% and the Pf_120h_%Growth_Rep1 ([2]; library screen at 2 μg/mL, 120 h, % growth, replicate 1) was 35.44%. For the same compound, the Pf_120h_%Growth_Rep2 ([2]; library screen at 2 μg/mL, 120 h, % growth, replicate 2) was 47.36%, the Pf_72h_%Growth_Rep1 [3, 8] was 36.85% and the Pf_72h_%Growth_Rep2 [3, 9] was 26.37%.

In the case of `COc1cc(=O)oc(/C=C/C=C/C=C/C(C)=C/[C@@]2(C)O[C@H](C)[C@](C)(O)[C@H]2O)c1C` [Citreoviridin], the Tg_72h_%Growth_Rep1 ([1]; T. gondii, 72 h, screen at 2 μg/mL, replicate 1) is reported as 86.37%, the Tg_72h_%Growth_Rep2 ([1]; T. gondii, 72 h, screen at 2 μg/mL, replicate 2) is reported as 89.97% and the Pf_120h_%Growth_Rep1 ([2]; P. falciparum, 120 h, screen at 2 μg/mL, replicate 1) is reported as 141.81%. For the same compound, the Pf_120h_%Growth_Rep2 ([2]; P. falciparum, 120 h, screen at 2 μg/mL, replicate 2) was 93.96%, the Pf_72h_%Growth_Rep1 ([3]; P. falciparum, 72 h, screen at 2 μg/mL, replicate 1) was 92.20% and the Pf_72h_%Growth_Rep2 ([3]; P. falciparum, 72 h, screen at 2 μg/mL, replicate 2) was 86.47%.

In the case of `COc1cc(-c2cc3c(c(=O)o2)C[C@]2(O)[C@@]4(C)C(=O)C=CC(C)(C)[C@]4(O)CC[C@@]2(C)O3)cc2c1OCO2` [Territrem A], the percent parasite growth at 2 µg/mL ([1]; Toxoplasma gondii, 72 h, T. gondii, 72 h, screen at 2 μg/mL, replicate 1; read-out: Tg_72h_%Growth_Rep1) is reported as 104%, the percent parasite growth at 2 µg/mL ([1]; Toxoplasma gondii, 72 h, T. gondii, 72 h, screen at 2 μg/mL, replicate 2; read-out: Tg_72h_%Growth_Rep2) is reported as 88.7% and the activity at 2 µg/mL ([2]; 3D7, 120 h, P. falciparum, 120 h, screen at 2 μg/mL, replicate 1, read-out: Pf_120h_%Growth_Rep1) is reported as 6.66%. For the same compound, the activity at 2 µg/mL ([2]; 3D7, 120 h, P. falciparum, 120 h, screen at 2 μg/mL, replicate 2, read-out: Pf_120h_%Growth_Rep2) was 112%, the Mean ([3]; P. falciparum, 72 h, 2 μg/mL, mean of both replicates, growth (% of control)) was 49.47 and the activity at 2 µg/mL ([3]; 3D7, 72 h, P. falciparum, 72 h, screen at 2 μg/mL, replicate 1, read-out: Pf_72h_%Growth_Rep1) was 14.3%. The activity at 2 µg/mL ([3]; 3D7, 72 h, P. falciparum, 72 h, screen at 2 μg/mL, replicate 2, read-out: Pf_72h_%Growth_Rep2) was 84.6%.

With `CN(C)[C@@H]1C(O)=C(C(=O)NCN2CCCC2)C(=O)[C@@]2(O)C(O)=C3C(=O)c4c(O)cccc4[C@@](C)(O)[C@H]3C[C@@H]12` [Rolitetracycline] the percent parasite growth at 2 µg/mL ([1]; Toxoplasma gondii, 72 h, T. gondii, 72 h, parasite screen 2 μg/mL, % growth, replicate 1; read-out: Tg_72h_%Growth_Rep1) was 105%, the percent parasite growth at 2 µg/mL ([1]; Toxoplasma gondii, 72 h, T. gondii, 72 h, parasite screen 2 μg/mL, % growth, replicate 2; read-out: Tg_72h_%Growth_Rep2) was 84.7% and the activity at 2 µg/mL ([2]; 3D7, P. falciparum, 120 h, parasite screen 2 μg/mL, % growth, replicate 1, read-out: Pf_120h_%Growth_Rep1) was 82.2%. The activity at 2 µg/mL ([2]; 3D7, P. falciparum, 120 h, parasite screen 2 μg/mL, % growth, replicate 2, read-out: Pf_120h_%Growth_Rep2) was 135%, the activity at 2 µg/mL ([3]; 3D7, P. falciparum, 72 h, parasite screen 2 μg/mL, % growth, replicate 1, read-out: Pf_72h_%Growth_Rep1) was 87.6% and the activity at 2 µg/mL ([3]; 3D7, P. falciparum, 72 h, parasite screen 2 μg/mL, % growth, replicate 2, read-out: Pf_72h_%Growth_Rep2) was 70%.

`Cc1c2c(c(O)c3c(O)cccc13)C(=O)[C@]1(O)C(=O)C(C(N)=O)=C(O)[C@@H](N(C)C)[C@@H]1C2` [Anhydrotetracycline hydrochloride] gave a percent parasite growth at 2 µg/mL ([1]; Toxoplasma gondii, 72 h, library screen at 2 μg/mL, 72 h, % growth, replicate 1; read-out: Tg_72h_%Growth_Rep1) of 89.6%, a percent parasite growth at 2 µg/mL ([1]; Toxoplasma gondii, 72 h, library screen at 2 μg/mL, 72 h, % growth, replicate 2; read-out: Tg_72h_%Growth_Rep2) of 88.3% and an activity at 2 µg/mL [2, 4] of 52.2%. It also gave an activity at 2 µg/mL [2, 5] of 57%, an activity at 2 µg/mL [3, 6] of 77.2% and an activity at 2 µg/mL [3, 7] of 74%.

With `COc1cc(C)c(C(=O)O)c(OC)c1` [BIA-O1659] the Tg_72h_%Growth_Rep1 ([1]; T. gondii, 72 h, parasite screen at 2 μg/mL, % growth, replicate 1) was 135.87%, the Tg_72h_%Growth_Rep2 ([1]; T. gondii, 72 h, parasite screen at 2 μg/mL, % growth, replicate 2) was 85.39% and the Pf_120h_%Growth_Rep1 ([2]; P. falciparum 3D7, 120 h, parasite screen at 2 μg/mL, % growth, replicate 1) was 91.75%. For the same compound, the Pf_120h_%Growth_Rep2 ([2]; P. falciparum 3D7, 120 h, parasite screen at 2 μg/mL, % growth, replicate 2) was 145.28%, the Pf_72h_%Growth_Rep1 ([3]; P. falciparum 3D7, 72 h, parasite screen at 2 μg/mL, % growth, replicate 1) was 84.80% and the Pf_72h_%Growth_Rep2 ([3]; P. falciparum 3D7, 72 h, parasite screen at 2 μg/mL, % growth, replicate 2) was 98.06%.

`COC1C=CC=C(C)C(=O)NC2=CC(=O)C=C(C2=O)C(OC)C(C)CC(OC)C(OC)C(C)C=C(C)C1OC(N)=O` (stereo not shown) [BIA-H1036] showed a Tg_72h_%Growth_Rep1 ([1]; T. gondii RH, 72 h, library screen at 2 μg/mL, % growth, replicate 1) of 133.21%, a Tg_72h_%Growth_Rep2 ([1]; T. gondii RH, 72 h, library screen at 2 μg/mL, % growth, replicate 2) of 80.30% and a Pf_120h_%Growth_Rep1 ([2]; P. falciparum 3D7, 120 h, library screen at 2 μg/mL, % growth, replicate 1) of 68.16%. The Pf_120h_%Growth_Rep2 ([2]; P. falciparum 3D7, 120 h, library screen at 2 μg/mL, % growth, replicate 2) was 41.77%, the Pf_72h_%Growth_Rep1 ([3]; P. falciparum 3D7, 72 h, library screen at 2 μg/mL, % growth, replicate 1) was 51.92% and the Pf_72h_%Growth_Rep2 ([3]; P. falciparum 3D7, 72 h, library screen at 2 μg/mL, % growth, replicate 2) was 44.34%.
